Measured values taken from patent US9274101B2 (BIOLOG, Inc., priority 2001, dated 2016).
Where a SMILES comes first, the peptide text is derived from it.

Tests used:
E. coli MG1655 = assay type: cell-based, Escherichia coli
HepG2 cells = HepG2 cells cultured on CYTODEX 3 microcarriers, energy sources; assay type: cell-based, human; settings: for activity at 30 µM / activity at 100 µM / activity at 330 µM / activity at 1000 µM / activity at 3300 µM / activity at 10000 µM / activity at 15000 µM / activity at 20000 µM: Homo sapiens, HepG2, 68 h, read-out: Responses of HepG2 Cells Cultured on Microcarriers After 68 hours in Culture and a 4 hour Color Development Period
Protocol: In this Example, methods for testing adherent cells cultured in suspension, for their ability to use multiple carbon sources are described. HepG2 cells were cultured as described in Example 30.
HepG2 cells were harvested by trypsinization for 3 minutes in 0.25% trypsin-1 mM EDTA and resuspended in an equal volume of culture medium. A viable cell count was obtained by trypan blue exclusion and the appropriate volume of the cell suspension to have 2.7×10^6 cells/0.1 gm CYTODEX 3 (Sigma C3275) microcarrier beads was determined. Microcarrier beads had been previously prepared by 1) rehydration in calcium-magnesium free (CMF) DPBS for 3 hours, 2) autoclaving for 15 minutes, and 3) washing twice in MEM without serum. The cell suspension was added to the beads in a 50 mL tube, and the volume adjusted to 5 mL. Cells were allowed to attach for 1 hour in an atmosphere of 5% CO2, 90-100% humidity, and 37° C., with resuspension every 15 minutes. The microcarriers were transferred to a 100×15 mm Petri dish in a total volume of 20 mL. Cultures were maintained as stationary cultures until used for assay.
The thixotropic suspending agent, methylcellulose (1500 cps, Sigma M0555), was included in the medium to keep the microcarriers suspended so that they could be accurately pipetted. The methylcellulose was prepared by autoclaving in 20 mL tissue culture water for 30 minutes, then mixing by shaking for 1 hour. The initial concentration of methylcellulose was […]. The methylcellulose was then diluted 1:1 in 2× DME with or without glucose, then supplemented with 10% HI FBS; this yields a methylcellulose concentration of 1.36%. Beads were transferred to a 50 mL tube, allowed to settle and resuspended in DPBS. The washed beads were then resuspended in DME with 10% HI FBS and penicillin-streptomycin but without glucose, L-glutamine, sodium pyruvate, or phenol red. An equal volume of 1.36% methylcellulose was added and mixed by pipetting.
For the assay, 70 μL of DME with 10% HI FBS and penicillin-streptomycin but without glucose, L-glutamine, sodium pyruvate, or phenol red were added to each well, followed by 30 μL of the appropriate dilution of each test energy source. Stocks of 133 mM of each test chemical were prepared in tissue culture grade water, sterile filtered, and dilutions were prepared in a master plate so that, upon dilution into a regular 96-well MICROPLATE a total well volume of 200 μL, the final concentrations would be 0.033 to 20 mM. Negative control wells received 30 μL of tissue culture grade water. One hundred μL of beads were pipetted into each well. For each plate containing energy sources and cells, a second, control plate containing only energy sources was prepared. Plates were incubated at 5% CO2, 90-100% humidity, and 37° C. for 68 hours prior to addition of the MTS/MPMS colorometric reagent (10 μL/well). The color formed in each well 4-8 hours after addition of the colorimetric reagent, was measured with a plate reader at 490 nm with a reference wavelength of 650 nm. OD values from the control plate were subtracted from the OD values obtained with cells prior to normalizing the data to % negative control (cells without added energy source).

O=C1NC(=O)C(=O)C(=O)N1 [alloxan]
suitability as nitrogen source (growth, purple color) (E. coli MG1655): not suitable

CCN [ethylamine]
suitability as nitrogen source (growth, purple color) (E. coli MG1655): not suitable

NCCN [ethylenediamine]
suitability as nitrogen source (growth, purple color) (E. coli MG1655): not suitable

NC=O [formamide]
suitability as nitrogen source (growth, purple color) (E. coli MG1655): not suitable

O=C(CO)[C@@H](O)[C@H](O)[C@H](O)CO [fructose]
activity at 30 µM (HepG2 cells; Conc. 0.03 mM): 97.1% | activity at 100 µM (HepG2 cells; Conc. 0.10 mM): 108% | activity at 330 µM (HepG2 cells; Conc. 0.33 mM): 123% | activity at 1000 µM (HepG2 cells; Conc. 1.00 mM): 115% | activity at 3300 µM (HepG2 cells; Conc. 3.3 mM): 107% | activity at 10000 µM (HepG2 cells; Conc. 10 mM): 94.4% | activity at 15000 µM (HepG2 cells; Conc. 15 mM): 72.1% | activity at 20000 µM (HepG2 cells; Conc. 20 mM): 50.3%

O=C[C@H](O)[C@@H](O)[C@@H](O)[C@H](O)CO [galactose]
activity at 30 µM (HepG2 cells; Conc. 0.03 mM): 97.1% | activity at 100 µM (HepG2 cells; Conc. 0.10 mM): 111% | activity at 330 µM (HepG2 cells; Conc. 0.33 mM): 121% | activity at 1000 µM (HepG2 cells; Conc. 1.00 mM): 109% | activity at 3300 µM (HepG2 cells; Conc. 3.3 mM): 117% | activity at 10000 µM (HepG2 cells; Conc. 10 mM): 94.4% | activity at 15000 µM (HepG2 cells; Conc. 15 mM): 81% | activity at 20000 µM (HepG2 cells; Conc. 20 mM): 65.6%

C[C@H](NC(=O)CN)C(=O)O [gly-ala] (H-Gly-Ala-OH)
suitability as nitrogen source (growth, purple color) (E. coli MG1655): positive

NCC(=O)N[C@@H](CC(N)=O)C(=O)O [gly-asn] (H-Gly-Asn-OH)
suitability as nitrogen source (growth, purple color) (E. coli MG1655): positive

NCC(=O)N[C@@H](CCC(N)=O)C(=O)O [gly-gln] (H-Gly-Gln-OH)
suitability as nitrogen source (growth, purple color) (E. coli MG1655): positive

CSCC[C@H](NC(=O)CN)C(=O)O [gly-met]
suitability as nitrogen source (growth, purple color) (E. coli MG1655): positive

NCC(=O)O [glycine]
suitability as nitrogen source (growth, purple color) (E. coli MG1655): positive

O=C(O)CNC(=O)c1ccccc1 [hippuric acid]
suitability as nitrogen source (growth, purple color) (E. coli MG1655): not suitable

NCCc1c[nH]cn1 [histamine]
suitability as nitrogen source (growth, purple color) (E. coli MG1655): not suitable

CC(O)C(N)=O (stereo not shown) [lactamide]
suitability as nitrogen source (growth, purple color) (E. coli MG1655): not suitable

CSCC[C@H](N)C(=O)N[C@@H](C)C(=O)O [met-ala] (H-Met-Ala-OH)
suitability as nitrogen source (growth, purple color) (E. coli MG1655): not suitable

CC(CC(=O)O)C(=O)O (stereo not shown) [methyl succinate]
Responses of HepG2 Cells Cultured on Microcarriers After 68 hours in Culture and a 4 hour Color Development Period (HepG2 cells; Conc. 0.03 mM): 90.6 % of negative control | Responses of HepG2 Cells Cultured on Microcarriers After 68 hours in Culture and a 4 hour Color Development Period (HepG2 cells; Conc. 0.10 mM): 83.3 % of negative control | Responses of HepG2 Cells Cultured on Microcarriers After 68 hours in Culture and a 4 hour Color Development Period (HepG2 cells; Conc. 0.33 mM): 98.6 % of negative control | Responses of HepG2 Cells Cultured on Microcarriers After 68 hours in Culture and a 4 hour Color Development Period (HepG2 cells; Conc. 1.00 mM): 107.5 % of negative control | Responses of HepG2 Cells Cultured on Microcarriers After 68 hours in Culture and a 4 hour Color Development Period (HepG2 cells; Conc. 3.3 mM): 124.3 % of negative control | Responses of HepG2 Cells Cultured on Microcarriers After 68 hours in Culture and a 4 hour Color Development Period (HepG2 cells; Conc. 10 mM): 162.7 % of negative control | Responses of HepG2 Cells Cultured on Microcarriers After 68 hours in Culture and a 4 hour Color Development Period (HepG2 cells; Conc. 15 mM): 181.5 % of negative control | Responses of HepG2 Cells Cultured on Microcarriers After 68 hours in Culture and a 4 hour Color Development Period (HepG2 cells; Conc. 20 mM): 112.4 % of negative control

O[C@H]1[C@H](O)[C@@H](O)[C@H](O)[C@@H](O)[C@H]1O [myoinositol]
activity at 30 µM (HepG2 cells; Conc. 0.03 mM): 86.3% | activity at 100 µM (HepG2 cells; Conc. 0.10 mM): 110% | activity at 330 µM (HepG2 cells; Conc. 0.33 mM): 113% | activity at 1000 µM (HepG2 cells; Conc. 1.00 mM): 99.8% | activity at 3300 µM (HepG2 cells; Conc. 3.3 mM): 108% | activity at 10000 µM (HepG2 cells; Conc. 10 mM): 89% | activity at 15000 µM (HepG2 cells; Conc. 15 mM): 78.3% | activity at 20000 µM (HepG2 cells; Conc. 20 mM): 61.4%

CCCCCN [n-amylamine]
suitability as nitrogen source (growth, purple color) (E. coli MG1655): not suitable

CCCCN [n-butylamine]
suitability as nitrogen source (growth, purple color) (E. coli MG1655): not suitable

O=[N+]([O-])[O-].[K+] [potassium nitrate]
suitability as nitrogen source (growth, purple color) (E. coli MG1655): not suitable

NCCCCN [putrescine]
suitability as nitrogen source (growth, purple color) (E. coli MG1655): not suitable

O=NO [sodium nitrite]
suitability as nitrogen source (growth, purple color) (E. coli MG1655): not suitable

Cc1c[nH]c(=O)[nH]c1=O [thymine]
suitability as nitrogen source (growth, purple color) (E. coli MG1655): not suitable

NC(N)=O [urea]
suitability as nitrogen source (growth, purple color) (E. coli MG1655): not suitable
